ChEMBL document CHEMBL1201862, “PubChem BioAssay data set” (2004)
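Compound exposure: 48 hours, 5 concentrations, 96-well plates. GI50 marks 50% less growth.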 Active and inactive are the calls of the source. Rule as the data show it: active = GI50 up to about 1.1 µM and inactive = higher.

Experiments:
Experiment in all cases: NCI-60 cell line screen, 48 h
[1] = test system: MDA-N
[2] = test system: UO-31
[3] = test system: M14
[4] = test system: SK-MEL-2
[5] = test system: K562
[6] = test system: NCI-H522
[7] = test system: KM12
[8] = test system: TK-10
[9] = test system: U-251
[10] = test system: SF-268
[11] = test system: SNB-19
[12] = test system: DU-145
[13] = test system: 786-0
[14] = test system: SR
[15] = test system: SF-295
[16] = test system: MDA-MB-435
[17] = test system: OVCAR-3
[18] = test system: MDA-MB-231
[19] = test system: SNB-75
[20] = test system: CCRF-CEM

Measured: GI50

NC(=O)c1csc(-c2ccc(CO)o2)n1
inactive: [1] > 100 µM | [2] > 100 µM | [3] > 100 µM | [4] > 100 µM | [5] > 100 µM | [6] > 100 µM | [7] > 100 µM | [8] > 100 µM | [9] > 100 µM | [10] > 100 µM | [11] > 100 µM | [12] > 100 µM | [13] > 100 µM | [14] > 100 µM | [15] > 100 µM | [16] > 100 µM | [17] > 100 µM | [18] > 100 µM

Cc1cc(OCC(=O)O)c(Cl)cc1Cl
inactive: [1] > 100 µM | [2] > 100 µM | [3] > 100 µM | [4] > 100 µM | [5] > 100 µM | [6] > 100 µM | [7] > 100 µM | [8] > 100 µM | [9] > 100 µM | [10] > 100 µM | [11] > 100 µM | [12] > 100 µM | [13] > 100 µM | [14] > 100 µM | [15] > 100 µM | [16] > 100 µM | [17] > 100 µM | [18] > 100 µM

Cc1cc([N+](=O)[O-])c(C)c(Br)c1C
inactive: [1] > 100 µM | [2] > 100 µM | [3] > 100 µM | [4] > 100 µM | [19] 25.2 µM | [5] > 100 µM | [6] > 100 µM | [7] > 100 µM | [8] > 100 µM | [9] > 100 µM | [10] > 100 µM | [11] > 100 µM | [12] > 100 µM | [13] > 100 µM | [15] > 100 µM | [16] > 100 µM | [17] > 100 µM | [18] > 100 µM

N#CC1=C2Sc3ccccc3N2[C@H](c2ccccc2)[C@H]2COC(=O)[C@@H]12
inactive: [20] 7.45 µM | [1] > 100 µM | [2] > 100 µM | [3] 52.4 µM | [4] 48 µM | [19] 21.6 µM | [6] 11.2 µM | [7] 63.2 µM | [8] 38.9 µM | [9] 45.2 µM | [10] 17.1 µM | [11] > 100 µM | [12] > 100 µM | [13] > 100 µM | [15] > 100 µM | [16] > 100 µM | [17] > 100 µM | [18] > 100 µM

CCOc1ncn(-c2ccc(NC(=S)NC34CC5CC(CC(C5)C3)C4)cc2)n1
inactive: [20] > 100 µM | [1] > 100 µM | [2] > 100 µM | [3] 61.9 µM | [19] 25.4 µM | [5] > 100 µM | [6] 99.1 µM | [7] 8.47 µM | [8] 59.2 µM | [9] > 10 µM | [10] > 100 µM | [11] 46.1 µM | [12] > 100 µM | [13] 13.2 µM | [14] > 100 µM | [15] 48.4 µM | [16] > 100 µM | [17] > 100 µM | [18] 76.4 µM

O=C(N[C@@H](c1ccccc1)[C@@H](O)C(=O)OCc1ccc([N+](=O)[O-])cc1)c1ccccc1
inactive: [20] 67.6 µM | [1] > 100 µM | [2] 65.5 µM | [4] > 100 µM | [19] 44.1 µM | [5] 51.3 µM | [6] > 100 µM | [7] > 100 µM | [8] > 100 µM | [9] > 100 µM | [10] > 100 µM | [11] > 100 µM | [12] > 100 µM | [13] > 100 µM | [15] > 10 µM | [16] > 100 µM | [17] > 100 µM | [18] > 100 µM

Clc1ccc(C2ON=C(c3ccccc3)N2C23CC4CC(CC(C4)C2)C3)cc1Cl (configuration not stated)
inactive: [20] > 10 µM | [1] > 10 µM | [2] > 10 µM | [3] > 10 µM | [4] > 10 µM | [19] > 10 µM | [5] > 10 µM | [6] > 10 µM | [7] > 10 µM | [8] > 10 µM | [9] > 10 µM | [10] > 10 µM | [11] > 10 µM | [12] > 10 µM | [13] > 10 µM | [15] > 10 µM | [16] > 10 µM | [17] > 10 µM | [18] > 10 µM

Cn1c2ccccc2c2c(=S)c3ccccc3ccc21
inactive: [20] 19 µM | [1] > 100 µM | [2] > 100 µM | [3] > 100 µM | [19] 24.6 µM | [5] 43.5 µM | [6] 36.8 µM | [7] 55.7 µM | [8] > 100 µM | [9] 52.8 µM | [10] > 100 µM | [11] > 100 µM | [12] 88.9 µM | [13] > 100 µM | [14] > 100 µM | [15] 76 µM | [16] > 100 µM | [17] 17.8 µM | [18] > 100 µM
